Results: patent US20110053914A1, “Pharmaceutical Combination Comprising 6-Dimethylaminomethyl-1-(3-methoxy-phenyl)-cyclohexane-1,3-diol or 6-Dimethylaminomethyl-1-(3-hydroxy-phenyl)-cyclohexane-1,3-diol and an Antiepileptic” (Gruenenthal GmbH, priority 2009, published 2011)
Counter-ions that a name gives are not always drawn. Like-named read-outs stand apart in the source and are kept apart here.

Assays:
Type in all cases: in vivo, rat
rats [1] = experiment: Spinal nerve ligation (Chung model for mononeuropathic pain) in rats, anti-allodynic testing; settings: 30 min after A; A 4 mg/kg iv; B 10 mg/kg iv 20 min before A or vehicle; tactile allodynia
Protocol: Under pentobarbital anaesthesia (Narcoren®, 60 mg/kg i.p., Merial GmbH, Hallbergmoos, FRG), the L5, L6 spinal nerves were tightly ligated (Kim and Chung, Pain 1992; 50: 355). The left L5 and L6 spinal nerves were exposed by removing a small piece of the paravertebral muscle and a part of the left spinous process of the L5 lumbar vertebra. The L5 and L6 spinal nerves were then carefully isolated and tightly ligated with silk (NC-silk black, USP 5/0, metric 1, Braun Melsungen AG, Melsungen, FRG). After checking hemostasis, the muscle and the adjacent fascia were closed with sutures and the skin was closed with sutures.
After operation, animals were allowed to recover for one week. Animals develop tactile allodynia which is stable for at least five weeks. […] Threshold for tactile allodynia was measured with an electronic von Frey anesthesiometer (Somedic, Sweden). […] The median of the withdrawal threshold for each animal at a given time is calculated from five individual stimulations with the electronic von Frey filament. Withdrawal thresholds of the injured paws are expressed as % maximal possible effect (% MPE) comparing predrug threshold of Chung-animals (=0% MPE) and control threshold of sham-animals (=100% MPE). […] The effect of each compound and vehicle is calculated for each testing time point (e.g. 0.5, 1, 3 h post administration) as interindividual % MPE value (±SEM). […]

rats [2] = experiment: Randall-Selitto test in rats (carrageenan inflammatory pain); settings: for ED50: Rattus norvegicus, 0.25 h
Protocol: The weight ratios of the components (a) and (b) that will lead to a supra-additive effect (synergistic effect) of the inventive pharmaceutical composition may be determined via the test of Randall and Selitto as described in Arch. Int. Pharmacodyn., 1957, 111: 409 to 419, which is a model for inflammatory pain. The respective part of the literature is hereby incorporated by reference and forms part of the present disclosure.
Acute inflammation was induced by an intraplantar injection of 0.1 ml of a carrageenan solution (0.5% in distilled water) into one hind paw. The mechanical nociceptive threshold was measured 4 hours after carrageenan injection using an Algesiometer (Ugo Basile, Italy). The device generates a mechanical force with a linear increase over time. The force is applied to the dorsal surface of the inflamed rat hind paw via a cone-shaped stylus with a rounded tip (2 mm tip diameter). The nociceptive threshold is defined as the force (in grams) at which the rat vocalises (cut-off force 250 g). The mechanical nociceptive threshold is measured at different timepoints after the drug or vehicle administration. The antinociceptive and antihyperalgesic activity of the tested substance is expressed as percentages of the maximal possible effect (% MPE). The group size is n=10.
The interactions studies presented herein were performed using equieffective doses of the two components, calculated from the ratio of the respective ED50 values of the components if administered alone.
The application route was intravenous (i.v.) for Axomadol hydrochloride (A) and intraperitoneal (i.p.) for the anticonvulsants Lamotrigine, Lacosamide, Levetiracetam, Retigabine and Carbamazepine. […] According to their respective timepoint of peak effect, A was applied 15 min and the anticonvulsant component also 15 min before timepoint of measurement of the interaction-experiments (i.e. both components were applied simultaneously). Thus, the time point of ED50 calculation of the combination corresponds to the timepoint of the peak effect of the respective compound.

male Sprague Dawley rats = experiment: Paw incision model in rats (post-operative pain), electronic von Frey; settings: intraperitoneal, at maximum effect; effective dose at 25% of the maximum effect; tactile hyperalgesia
Text: The paw incision model (Brennan, T. J., Vandermeulen, E. P., Gebhart, G. F., Pain 64, (1996), 493-501) is an animal model of post-operative pain.
In male Sprague Dawley rats (body weight 180-200 g) a longitudinal incision of 1 cm length is made, starting 0.5 cm from the proximal end of the paw, through the skin and fascia. Using bent tweezers the muscle is lifted up from the bottom and incised lengthwise, flat and centered using a scalpel. The muscle is spreaded bluntly with the tweezers. Subsequently, the wound is closed with two sutures.
The tactile hyperalgesia two hours after the operation is determined using an electronic von Frey filament (Somedic Sales AB, Hörby, Sweden). […] In order to investigate the sensitivity to the mechanical stimulus, the paw retraction threshold is determined on the ipsilateral paw as well as in the same position on the untreated contralateral paw and is given in grams of the applied pressure. The retraction threshold per paw is measured four times and the median value is then determined. The retraction threshold of the ipsi- and contralateral paw is measured prior administration (pre-test value) and at several times after administration of a substance, namely (15, 30 and 60 minutes after administration). […]
From the median values the Maximum Positive Effect (% MPE) is determined according to the following formula: […]

[3] = ip, i.p., 15 min p. appl. (peak effect), read-out: ED50 [mg/kg] of the anticonvulsant alone

SMILES | ED50 (rats [2]; [3]) [mg/kg] | Time point of peak effect p. appl. (rats [2]; anticonvulsant alone, i.p.) [min] | other results
NCC1(CC(=O)O)CCCCC1 [B, Gabapentin hydrochloride] | – | – | Effect % MPE (time after administration of A) (rats [1]): 16 ± 5 (30 min) % MPE
CC[C@@H](C(N)=O)N1CCCC1=O [Levetiracetam] | 986 | 15 | –
NC(=O)N1c2ccccc2C=Cc2ccccc21 [Carbamazepine] | 30 | 15 | –
COc1cccc([C@@]2(O)C[C@H](O)CC[C@@H]2CN(C)C)c1 (racemic) [A, (1RS,3RS,6RS)-6-dimethylaminomethyl-1-(3-methoxy-phenyl)-cyclohexane-1,3-diol hydrochloride] | – | – | ED25 [mg/kg] (confidence interval) of the individual substance (male Sprague Dawley rats): 9.15 mg/kg; Effect % MPE (time after administration of A) (rats [1]): 29 ± 6 (30 min) % MPE; Time point of peak effect p. appl. (rats [2]; A alone, i.v., timepoint of first measurement): 15 min; ED50 (rats [2]; iv, i.v., 15 min p. appl. (peak effect), read-out: ED50 [mg/kg] of A alone): 15.3 mg/kg; ED50 [mg/kg] of A alone (rats [2]; i.v., 15 min p. appl. (peak effect), hydrochloride): 15.3 mg/kg
CCOC(=O)Nc1ccc(NCc2ccc(F)cc2)cc1N [Retigabine] | 5.09 | 15 | –
Nc1nnc(-c2cccc(Cl)c2Cl)c(N)n1 [Lamotrigine] | 35.3 | 15 | –
COC[C@@H](NC(C)=O)C(=O)NCc1ccccc1 [Lacosamide] | 35.9 | 15 | ED50 [mg/kg] of the anticonvulsant alone (rats [2]; i.p., 15 min p. appl. (peak effect)): 35.9 mg/kg
CC(C)C[C@H](CN)CC(=O)O [(S)-pregabaline] | – | – | ED25 [mg/kg] (confidence interval) of the individual substance (male Sprague Dawley rats): 18.8 mg/kg
